Assay results taken from patent US7902375B2, “5-phenyl-4-methyl-thiazol-2-yl-amine derivatives as inhibitors of phosphatidylin ositol 3 kinase enzymes (PI13) for treatment of inflammatory diseases” (Novartis AG, priority 2003, dated 2011).

target: T1, human PI3Kγ (recombinant GST-p110γ) (Homo sapiens, UniProt P48736); experiment: in vitro kinase assay (Scintillation Proximity Assay), PI3K gamma isoform; type: biochemical; details: SPA, phosphatidylinositol substrate, 60 minutes room temperature
T1 construct: Residues 38-1102 of human PI3Kγ are subcloned into the BamH1 and EcoR1 sites of the transfer vector pAcG2T; made in house; host or cells: Sf9 (Spodoptera frugiperda) insect cells, baculovirus
Protocol: To express the recombinant protein, Sf9 (Spodoptera frugiperda 9) insect cells are routinely maintained at densities between 3×10^5 and 3×10^6 cells/ml in serum containing TNMFH medium (Sigma). Sf9 cells, at a density of 2×10^6 are infected with human GST-PI3KγΔ34 baculovirus at a multiplicity of infection (m.o.i.) of 1 for 72 hours. The infected cells are harvested by centrifugation at 1400 g for 4 minutes at 4° C. and the cell pellets are frozen at −80° C. […] Cell lysate (supernatant) is added (usually as 50 ml lysate to 1 ml GST resin in 50 ml tubes) and gently rotated on a mixer at 4° C. for 2-3 hours. The unbound flow through sample is collected by centrifugation at 1000 g for 5 minutes at 4° C. using a DENLEY™ centrifuge. The 1 ml GST resin containing bound material is transferred to a 15 ml FALCON™ centrifuge tube for subsequent washing and elution steps. Firstly a series of 3 cycles of washings (mixing by gentle inversion) is performed with 15 ml ice cold wash Buffer A (50 mM Tris-HCl pH 7.5, 1% Triton X-100, 2 mM DTT) interspersed with centrifugation at 1000 g for 5 minutes at 4° C. A final single wash step is performed with 15 ml ice cold wash Buffer B (50 mM Tris-HCl pH 7.5, 2 mM DTT) and then centrifuged at 1000 g for 5 minutes at 4° C. The washed GST resin is finally eluted with 4 cycles of 1 ml ice cold elution buffer (50 mM Tris-HCl pH 7.5, 10 mM reduced glutathione, 2 mM DTT, 150 mM NaCl, 1 mM NaF, 50% ethylene glycol and protease inhibitors) interspersed with centrifugation at 1000 g for 5 minutes at 4° C. Samples are aliquoted and stored at −20° C.
An in vitro kinase assay was established that measures the transfer of the terminal phosphate of adenosine triphosphate to phosphatidylinositol. The kinase reaction is performed in a white 96 well microtitre plate as a Scintillation Proximiy Assay. […] The reaction is started by the addition of 20 μl of enzyme mix (40 mM Tris, 200 mM NaCl, 2 mM EGTA containing recombinant GST-p110γ).

T1 sequence (P48736 38-1102): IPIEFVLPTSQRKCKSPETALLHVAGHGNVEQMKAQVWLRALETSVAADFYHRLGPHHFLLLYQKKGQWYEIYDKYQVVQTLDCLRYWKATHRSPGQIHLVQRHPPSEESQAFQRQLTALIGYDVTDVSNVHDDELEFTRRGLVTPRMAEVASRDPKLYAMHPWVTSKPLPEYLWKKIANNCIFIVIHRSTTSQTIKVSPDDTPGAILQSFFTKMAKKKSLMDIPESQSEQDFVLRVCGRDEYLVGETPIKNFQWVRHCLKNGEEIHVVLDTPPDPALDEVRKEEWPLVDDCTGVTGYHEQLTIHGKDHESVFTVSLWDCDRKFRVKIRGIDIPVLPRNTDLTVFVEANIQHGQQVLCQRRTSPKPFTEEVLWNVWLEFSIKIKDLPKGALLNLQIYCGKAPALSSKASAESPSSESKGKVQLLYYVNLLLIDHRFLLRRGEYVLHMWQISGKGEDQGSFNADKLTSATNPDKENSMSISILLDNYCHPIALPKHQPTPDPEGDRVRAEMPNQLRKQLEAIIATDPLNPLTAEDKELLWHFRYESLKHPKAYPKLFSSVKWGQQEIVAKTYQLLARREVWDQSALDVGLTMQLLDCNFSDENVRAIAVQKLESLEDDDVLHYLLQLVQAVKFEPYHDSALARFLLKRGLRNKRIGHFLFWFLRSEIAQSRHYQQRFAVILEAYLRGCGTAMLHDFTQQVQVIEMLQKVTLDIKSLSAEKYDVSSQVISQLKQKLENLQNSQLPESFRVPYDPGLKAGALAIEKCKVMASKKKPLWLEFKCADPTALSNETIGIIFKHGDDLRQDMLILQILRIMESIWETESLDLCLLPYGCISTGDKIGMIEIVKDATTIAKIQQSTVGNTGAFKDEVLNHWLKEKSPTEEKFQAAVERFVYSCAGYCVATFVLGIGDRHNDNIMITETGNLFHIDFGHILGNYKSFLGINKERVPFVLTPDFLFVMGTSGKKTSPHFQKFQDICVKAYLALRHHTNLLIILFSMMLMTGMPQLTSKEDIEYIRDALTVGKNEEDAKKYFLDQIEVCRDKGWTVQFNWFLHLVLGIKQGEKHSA

SMILES | IC50 [nM]
Cc1nc(NC(=O)NCc2nnn[nH]2)sc1-c1ccc(S(C)(=O)=O)c(F)c1 [Example 124, 1-[5-(3-Fluoro-4-methanesulfonyl-phenyl)-4-methyl-thiazol-2-yl]-3-(1H-tetrazol-5-ylmethyl)-urea] | 7
Cc1nc(NC(=O)NCC(=O)N(C)C(C)C)sc1-c1ccc(S(C)(=O)=O)c(F)c1 [Example 138, 2-{3-[5-(3-Fluoro-4-methanesulfonyl-phenyl)-4-methyl-thiazol-2-yl]-ureido)-N-isopropyl-N-methyl-acetamide] | 18
CCC(C)(C)NC(=O)CCNC(=O)Nc1nc(C)c(-c2ccc(S(C)(=O)=O)c(F)c2)s1 [Example 145, N-(1,1-Dimethyl-propyl)-3-{3-[5-(3-fluoro-4-methanesulfonyl-phenyl)-4-methyl-thiazol-2-yl]-ureido}-propionamide] | 17

More lines, now with the values ahead:

IC50 [nM] | SMILES
17 | CCn1nnc(CNC(=O)Nc2nc(C)c(-c3ccc(S(C)(=O)=O)c(F)c3)s2)n1 [Example 131, 1-(2-Ethyl-2H-tetrazol-5-ylmethyl)-3-[5-(3-fluoro-4-methanesulfonyl-phenyl)-4-methyl-thiazol-2-yl]-urea]
56 | Cc1nc(NC(=O)NCCc2nnn(C(C)C)n2)sc1-c1ccc(S(C)(=O)=O)c(F)c1 [Example 150, 1-[5-(3-Fluoro-4-methanesulfonyl-phenyl)-4-methyl-thiazol-2-yl]-3-[2-(2-isopropyl-2H-tetrazol-5-yl)-ethyl]-urea]
